Measurements as given in ChEMBL document CHEMBL5465560, “Selectivity Literature for EUbOPEN Chemogenomic Library” (2024).
Each block holds one compound with its values, some of them ahead of it.

Experiments:
[1] = biological target: T1, Hormonally up-regulated neu tumor-associated kinase (Homo sapiens) (UniProt P57058); assay: Selectivity interaction (Ambit KINOMEscan and KiNATiv profiling in Jurkat cells) EUB0000090b HUNK; format: cell-based; conditions: at 1 µM
T1 sequence (whole entry): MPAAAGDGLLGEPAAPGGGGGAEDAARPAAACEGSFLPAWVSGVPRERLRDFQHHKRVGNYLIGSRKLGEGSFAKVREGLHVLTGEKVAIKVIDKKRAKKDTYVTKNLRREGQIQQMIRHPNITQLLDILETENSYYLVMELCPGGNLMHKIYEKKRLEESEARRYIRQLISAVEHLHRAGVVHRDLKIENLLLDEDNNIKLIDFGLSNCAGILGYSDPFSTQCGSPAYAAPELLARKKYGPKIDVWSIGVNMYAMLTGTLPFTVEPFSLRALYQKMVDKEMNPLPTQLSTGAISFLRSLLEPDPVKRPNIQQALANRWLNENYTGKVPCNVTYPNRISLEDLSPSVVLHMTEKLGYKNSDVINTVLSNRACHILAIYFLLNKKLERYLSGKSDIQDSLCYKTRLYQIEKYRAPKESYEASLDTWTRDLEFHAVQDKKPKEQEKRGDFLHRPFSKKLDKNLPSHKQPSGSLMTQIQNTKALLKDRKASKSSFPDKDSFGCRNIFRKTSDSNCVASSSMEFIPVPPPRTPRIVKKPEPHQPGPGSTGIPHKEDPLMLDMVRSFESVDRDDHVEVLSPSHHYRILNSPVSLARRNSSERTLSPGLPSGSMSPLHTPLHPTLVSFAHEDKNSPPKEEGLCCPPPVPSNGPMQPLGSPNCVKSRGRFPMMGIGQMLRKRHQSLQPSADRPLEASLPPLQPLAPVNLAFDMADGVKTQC

[2] = biological target: Tyrosine-protein kinase Lck (Homo sapiens, UniProt P06239); assay: Selectivity interaction (KinomeScan (DiscoverX)) EUB0001079a LCK; conditions: at 1 µM
[3] = biological target: Casein kinase II subunit alpha (Homo sapiens, UniProt P68400); assay: Selectivity interaction (KinomeScan (DiscoverX)) EUB0000618a CSNK2A1; conditions: at 10 µM
[4] = biological target: T2, Serine/threonine-protein kinase Nek11 (Homo sapiens) (UniProt Q8NG66); assay: Selectivity interaction (KinomeScan (DiscoverX)) EUB0000045b NEK11
T2 sequence (whole entry): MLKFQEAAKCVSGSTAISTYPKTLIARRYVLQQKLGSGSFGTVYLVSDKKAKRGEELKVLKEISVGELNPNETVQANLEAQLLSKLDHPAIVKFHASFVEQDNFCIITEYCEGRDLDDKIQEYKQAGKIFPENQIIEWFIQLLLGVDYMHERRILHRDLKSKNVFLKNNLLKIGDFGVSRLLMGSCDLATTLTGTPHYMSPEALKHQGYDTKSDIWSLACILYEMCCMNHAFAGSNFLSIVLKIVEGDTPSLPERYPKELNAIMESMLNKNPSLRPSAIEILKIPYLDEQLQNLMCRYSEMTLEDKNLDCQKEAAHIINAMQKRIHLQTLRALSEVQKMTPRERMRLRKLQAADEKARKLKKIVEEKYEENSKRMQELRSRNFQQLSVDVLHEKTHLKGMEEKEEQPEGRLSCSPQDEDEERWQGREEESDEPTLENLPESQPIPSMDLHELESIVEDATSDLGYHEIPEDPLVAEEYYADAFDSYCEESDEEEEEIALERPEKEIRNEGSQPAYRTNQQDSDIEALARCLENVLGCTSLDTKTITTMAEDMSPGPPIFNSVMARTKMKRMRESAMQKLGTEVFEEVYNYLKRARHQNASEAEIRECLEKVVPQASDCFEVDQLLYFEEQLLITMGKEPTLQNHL

[5] = biological target: Protein kinase C theta type (Homo sapiens, UniProt Q04759); assay: Selectivity interaction (Upstate Kinase Profiler service (Millipore)) EUB0000056c PRKCQ; conditions: at 1 µM
[6] = biological target: Serine/threonine-protein kinase 25 (Homo sapiens) (UniProt O00506); assay: Selectivity interaction (KinomeScan (DiscoverX)) EUB0000229b STK25; conditions: at 10 µM
[7] = biological target: T3, Mitogen-activated protein kinase kinase kinase 2 (Homo sapiens) (UniProt Q9Y2U5); assay: Selectivity interaction (ProQinase) EUB0000171b MAP3K2
T3 sequence (whole entry): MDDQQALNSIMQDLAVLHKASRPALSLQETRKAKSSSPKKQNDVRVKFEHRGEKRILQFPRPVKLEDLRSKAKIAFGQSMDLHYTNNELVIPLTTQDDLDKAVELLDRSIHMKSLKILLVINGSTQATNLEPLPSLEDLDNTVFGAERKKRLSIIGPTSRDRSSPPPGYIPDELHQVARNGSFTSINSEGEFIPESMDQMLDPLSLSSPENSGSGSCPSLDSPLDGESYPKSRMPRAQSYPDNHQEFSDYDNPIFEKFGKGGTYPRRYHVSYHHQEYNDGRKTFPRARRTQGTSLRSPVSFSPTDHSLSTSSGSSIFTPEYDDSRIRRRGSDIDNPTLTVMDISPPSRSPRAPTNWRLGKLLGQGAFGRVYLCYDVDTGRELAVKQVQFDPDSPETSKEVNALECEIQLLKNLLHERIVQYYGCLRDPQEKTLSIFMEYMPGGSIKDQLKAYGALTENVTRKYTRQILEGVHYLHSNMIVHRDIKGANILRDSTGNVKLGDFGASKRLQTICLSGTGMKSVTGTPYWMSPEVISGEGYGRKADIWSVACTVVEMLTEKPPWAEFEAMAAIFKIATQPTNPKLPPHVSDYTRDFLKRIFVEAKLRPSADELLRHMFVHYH

[8] = biological target: Death-associated protein kinase 2 (Homo sapiens) (UniProt Q9UIK4); assay: Selectivity interaction (KinomeScan (DiscoverX)) EUB0001049a DAPK2; conditions: at 1 µM
[9] = biological target: Tyrosine-protein kinase CSK (Homo sapiens) (UniProt P41240); assay: Selectivity interaction (KinomeScan (DiscoverX)) EUB0001049a CSK; conditions: at 1 µM
[10] = biological target: Death-associated protein kinase 3 (Homo sapiens) (UniProt O43293); assay: Selectivity interaction (KinomeScan (DiscoverX)) EUB0000666a DAPK3; conditions: at 10 µM
Death-associated protein kinase 3 (Homo sapiens), sequence (O43293 whole entry, looked up): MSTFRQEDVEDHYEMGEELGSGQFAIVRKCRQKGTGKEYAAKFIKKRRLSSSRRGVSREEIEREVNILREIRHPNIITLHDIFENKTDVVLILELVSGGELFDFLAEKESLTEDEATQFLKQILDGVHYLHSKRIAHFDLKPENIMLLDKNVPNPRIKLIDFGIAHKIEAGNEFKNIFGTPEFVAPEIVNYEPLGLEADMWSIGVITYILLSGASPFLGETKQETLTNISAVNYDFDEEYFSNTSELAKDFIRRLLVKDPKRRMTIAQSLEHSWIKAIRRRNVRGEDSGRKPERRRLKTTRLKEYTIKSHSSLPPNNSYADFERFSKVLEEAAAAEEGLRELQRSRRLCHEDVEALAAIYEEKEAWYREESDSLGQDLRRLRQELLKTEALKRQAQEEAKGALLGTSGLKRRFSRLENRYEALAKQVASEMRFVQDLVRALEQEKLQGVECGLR

Serine/threonine-protein kinase 25 (Homo sapiens), sequence (O00506 whole entry, looked up): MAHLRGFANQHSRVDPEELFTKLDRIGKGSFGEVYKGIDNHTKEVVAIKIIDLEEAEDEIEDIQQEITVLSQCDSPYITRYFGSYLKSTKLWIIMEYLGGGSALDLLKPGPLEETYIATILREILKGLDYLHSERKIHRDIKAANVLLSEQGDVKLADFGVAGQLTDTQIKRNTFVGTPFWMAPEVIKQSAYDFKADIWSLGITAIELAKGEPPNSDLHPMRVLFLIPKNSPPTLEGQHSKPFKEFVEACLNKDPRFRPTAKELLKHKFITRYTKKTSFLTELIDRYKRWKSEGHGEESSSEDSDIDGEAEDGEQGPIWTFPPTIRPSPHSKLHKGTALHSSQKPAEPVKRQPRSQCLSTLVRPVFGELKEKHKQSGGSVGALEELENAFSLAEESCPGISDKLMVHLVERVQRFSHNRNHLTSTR
Death-associated protein kinase 2 (Homo sapiens), sequence (Q9UIK4 whole entry, looked up): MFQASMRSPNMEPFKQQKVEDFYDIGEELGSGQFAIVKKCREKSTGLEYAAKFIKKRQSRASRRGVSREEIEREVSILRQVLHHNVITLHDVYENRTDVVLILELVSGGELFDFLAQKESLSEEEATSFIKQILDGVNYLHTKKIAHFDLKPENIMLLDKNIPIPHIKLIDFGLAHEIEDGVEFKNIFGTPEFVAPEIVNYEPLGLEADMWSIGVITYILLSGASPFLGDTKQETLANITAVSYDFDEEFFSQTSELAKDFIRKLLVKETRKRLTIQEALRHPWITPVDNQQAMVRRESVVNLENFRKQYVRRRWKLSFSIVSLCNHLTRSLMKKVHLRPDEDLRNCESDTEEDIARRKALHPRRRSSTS
Tyrosine-protein kinase CSK (Homo sapiens), sequence (P41240 2-450 limits assumed): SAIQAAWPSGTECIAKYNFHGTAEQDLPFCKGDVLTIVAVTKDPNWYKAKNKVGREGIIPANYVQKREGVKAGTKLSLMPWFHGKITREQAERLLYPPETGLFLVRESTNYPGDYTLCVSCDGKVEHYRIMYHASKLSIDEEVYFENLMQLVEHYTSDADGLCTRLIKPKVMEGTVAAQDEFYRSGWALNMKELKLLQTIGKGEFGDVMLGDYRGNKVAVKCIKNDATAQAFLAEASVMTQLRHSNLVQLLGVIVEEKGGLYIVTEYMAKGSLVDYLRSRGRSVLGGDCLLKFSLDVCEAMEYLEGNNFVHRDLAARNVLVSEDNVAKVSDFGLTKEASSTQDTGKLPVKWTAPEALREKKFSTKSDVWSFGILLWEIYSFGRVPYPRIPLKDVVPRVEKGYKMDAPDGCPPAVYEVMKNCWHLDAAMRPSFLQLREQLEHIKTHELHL
Casein kinase II subunit alpha, sequence (P68400 whole entry, looked up): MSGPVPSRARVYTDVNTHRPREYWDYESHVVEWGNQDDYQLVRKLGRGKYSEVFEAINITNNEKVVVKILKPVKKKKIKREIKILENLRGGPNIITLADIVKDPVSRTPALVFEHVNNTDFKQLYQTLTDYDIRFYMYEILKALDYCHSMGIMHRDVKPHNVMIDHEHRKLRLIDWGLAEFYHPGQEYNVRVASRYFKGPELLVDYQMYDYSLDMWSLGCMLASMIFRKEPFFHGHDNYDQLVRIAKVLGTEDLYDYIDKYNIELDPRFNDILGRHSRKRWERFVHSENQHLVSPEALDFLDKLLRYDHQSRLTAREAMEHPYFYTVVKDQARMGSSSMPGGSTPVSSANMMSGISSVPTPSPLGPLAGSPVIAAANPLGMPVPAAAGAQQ
Protein kinase C theta type, sequence (Q04759 whole entry, looked up): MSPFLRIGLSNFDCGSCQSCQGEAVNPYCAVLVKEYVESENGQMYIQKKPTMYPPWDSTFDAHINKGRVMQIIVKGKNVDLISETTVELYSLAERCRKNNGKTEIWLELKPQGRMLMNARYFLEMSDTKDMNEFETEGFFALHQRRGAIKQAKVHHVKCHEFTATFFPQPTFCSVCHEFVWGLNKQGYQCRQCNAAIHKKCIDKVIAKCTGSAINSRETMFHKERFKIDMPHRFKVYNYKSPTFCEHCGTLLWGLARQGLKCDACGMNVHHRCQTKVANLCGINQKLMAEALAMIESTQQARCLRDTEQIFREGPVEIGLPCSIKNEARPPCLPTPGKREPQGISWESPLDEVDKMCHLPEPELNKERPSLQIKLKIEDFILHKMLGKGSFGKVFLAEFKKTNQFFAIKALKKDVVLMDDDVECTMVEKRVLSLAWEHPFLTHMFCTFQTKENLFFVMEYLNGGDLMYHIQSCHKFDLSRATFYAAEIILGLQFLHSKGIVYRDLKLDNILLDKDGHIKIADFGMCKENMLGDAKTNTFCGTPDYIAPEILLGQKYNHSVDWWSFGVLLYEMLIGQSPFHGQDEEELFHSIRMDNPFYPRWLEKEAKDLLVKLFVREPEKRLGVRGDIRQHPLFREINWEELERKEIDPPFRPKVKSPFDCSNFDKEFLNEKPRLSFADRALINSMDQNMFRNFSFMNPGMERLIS
Tyrosine-protein kinase Lck, sequence (P06239 2-509 limits assumed): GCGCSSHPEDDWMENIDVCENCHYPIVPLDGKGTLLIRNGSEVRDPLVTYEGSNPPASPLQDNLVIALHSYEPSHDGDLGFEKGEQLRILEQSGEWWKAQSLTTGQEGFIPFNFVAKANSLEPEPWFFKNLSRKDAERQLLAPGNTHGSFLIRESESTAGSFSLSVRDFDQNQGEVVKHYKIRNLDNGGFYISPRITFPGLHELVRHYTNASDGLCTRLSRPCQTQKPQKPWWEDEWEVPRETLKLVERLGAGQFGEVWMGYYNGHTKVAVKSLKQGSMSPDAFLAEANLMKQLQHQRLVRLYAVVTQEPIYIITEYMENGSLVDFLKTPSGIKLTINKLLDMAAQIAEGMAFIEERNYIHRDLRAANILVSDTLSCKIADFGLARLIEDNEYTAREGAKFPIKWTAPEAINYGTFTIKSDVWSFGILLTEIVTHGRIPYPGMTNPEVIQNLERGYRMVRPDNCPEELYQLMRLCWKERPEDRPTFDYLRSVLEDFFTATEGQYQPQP

Structure (SMILES): CN(C)C/C=C/C(=O)Nc1ccc(C(=O)N2CCCC(Nc3ncc(Cl)c(-c4c[nH]c5ccccc45)n3)C2)cc1 (configuration not stated)
% of control [1]: 80%

Structure (SMILES): Nc1cnc(N2CCc3cc(S(=O)(=O)Nc4c(F)cc(Cl)cc4F)cc(N4CCCC4=O)c32)nc1 [TP-020n]
% of control [2]: 100%

Structure (SMILES): O[C@H]1CC[C@H](Nc2ncc3nc(Nc4c(F)cc(F)cc4F)n([C@H]4CCOC4)c3n2)CC1
% of control [3]: 100%

Structure (SMILES): C=CC(=O)Nc1cc(-n2c(=O)ccc3cnc4ccc(-c5ccc(NS(C)(=O)=O)cc5)cc4c32)ccc1C
% of control ([4]; at 1 µM): 100%
% of control ([4]; at 10 µM): 100%

% of inhibition [5]: 27%
Structure (SMILES): Cc1ccc(-c2ccc3c(ccc4sc5c(c43)NC[C@@H](C)NC5=O)n2)cn1

Structure (SMILES): COc1cc(N(C)c2ccnc3ccc(C(F)(F)F)cc23)cc(OC)c1OC
% binding [6]: 88%

% of control ([7]; at 1 µM): 99%
% of control ([7]; at 5 µM): 88%
Structure (SMILES): C=CC(=O)Nc1cccc(C(=O)Nc2ccc(Nc3cc(-c4[nH]c(SC)nc4C)ccn3)cc2)c1

Structure (SMILES): COc1cc(Nc2nc(C)cc(-c3cnn4nc(OC)ccc34)n2)cc(C(F)(F)F)c1
% of control [8]: 100%
% of control [9]: 59%

Structure (SMILES): O=C(NOC[C@H](O)CO)c1ccc(F)c(F)c1Nc1ccc(I)cc1F
% of control [10]: 100%
